pIC50: −log10 of the molar value.
Columns and labels:
[1] = biological target: T1, hOT receptor (Homo sapiens, UniProt P30559); assay: In vitro competition binding assay with scintillating proximity assay; settings: [125I]-OVTA competition; membranes from HEK293EBNA cells expressing the hOT receptor; read-out: Binding affinity human OT-R IC50
T1 construct: expressed in transfected cells; host or cells: HEK293EBNA
T1 sequence (P30559 1-389): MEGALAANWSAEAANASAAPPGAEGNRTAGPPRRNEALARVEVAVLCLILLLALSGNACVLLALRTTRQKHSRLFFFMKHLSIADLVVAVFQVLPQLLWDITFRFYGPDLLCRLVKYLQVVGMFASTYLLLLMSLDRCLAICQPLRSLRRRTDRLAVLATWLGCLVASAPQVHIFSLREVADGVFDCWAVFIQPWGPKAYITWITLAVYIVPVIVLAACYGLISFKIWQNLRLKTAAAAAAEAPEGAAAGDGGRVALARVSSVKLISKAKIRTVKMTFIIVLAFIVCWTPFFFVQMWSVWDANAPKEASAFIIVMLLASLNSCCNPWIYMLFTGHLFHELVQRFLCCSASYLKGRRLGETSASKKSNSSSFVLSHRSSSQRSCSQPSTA
Procedure: a) In Vitro Competition Binding Assay with Scintillating Proximity Assay (Pharmaceutical Manufacturing International, 1992, p. 49–53 by Cook, N. D. et al)
This assays allows to determine the affinity of the test compounds for the OT receptor. Membranes from HEK293EBNA cells expressing the hOT receptor were resuspended in buffer containing 50 mM Tris-HCl, pH 7.4, 5 mM MgCl2 and 0.1% BSA (w/v). The membranes (2–4 μg) were mixed with 0.1 mg wheat-germ aglutinin (WGA) SPA bead (type A) and 0.2 nM of the radiolabel [^125I]-OVTA (OVTA being Ornithin Vasoactive and is an analogue of OT for competition binding experiments). Non-specific binding was determined in the presence of 1 μM Oxytocin. The total assay volume was 100 μl. The plates (Corning® NBS plate) were incubated at room temperature for 30 min and counted on a Mibrobeta plate counter. The tests compounds were used in concentrations of 30 μM, 10 μM, 1 μM, 300 nM, 100 nM, 10 nM, 1 nM, 100 pM, 10 pM. The competition binding data were analysed using the iterative, non-linear, curve-fitting program, “Prism”.
The binding affinities to the oxytocin receptor of the pyrrolidine derivatives claimed in the formula I were assessed using the above described in vitro biological assay. The values refer to the binding affinity (IC50; μM) of the example compounds according to formula I to the Oxytocin receptor.

[2] = biological target: T2, hOT-R (Homo sapiens, UniProt P30559); assay: Functional assay No. 1: inhibition of Ca2+-mobilization by FLIPR; format: cell-based; settings: HEK cells, OT 40 nM
T2 construct: expressed in transfected cells; host or cells: HEK (Human Embryonic Kidney) cells
T2 sequence (P30559 1-389): T1 sequence (P30559 1-389)
Text: b) Functional Assay No. 1: Inhibition of Ca^2+-mobilization by FLIPR (Fluorescent Imaging Plate Reader)
FLIPR is a machine for fluorescence imaging using a laser that is capable of illuminating a 96-well plate and a means of simultaneously reading each well thus enabling rapid measurements on a large number of samples.
This assay intends to show the inhibition of the OT/OT-R mediated calcium mobilisation—being necessary to cause uterine contractions—by using test compounds of formula (I).
Preparing the plates: FLIPR-plates were pre-coated with PLL (Poly-L-Lysine) 10 μg/ml+0.1% gelatine to attach the HEK (Human Embryonic Kidney) cells for 30 min up to 2 days at 37° C. The cells were plated out into 96-well plates (60000 cells/well).
Labelling with fluo-4: 50 μg fluo-4 (fluorescent marker) were dissolved in 20 μl pluronic acid (20% in DMSO). The dissolved fluo-4 was then diluted in 10 ml DMEM (Dubecco's Minimal Essential Medium-F12 medium without FCS (Fetal Calf Serum). The medium was removed from the plates, followed by one wash with DMEM-F12 medium. Now, 100 μl of the DMEM-F12 medium containing fluo-4 were added and the cells incubated for 1–1.5 h (CHO-cells), and 1.5–2 h (HEK-cells). The cells now contain the fluorescent marker.
Buffer: 145 mM NaCl, 5 mM KCl, 1 mM MgCl2, 10 mM Hepes, 10 mM Glucose, EGTA (Ethylene-bis oxyethylene nitrilo tetraacetic acid). Adjust to pH 7.4.
Performance of the assay: A minimum of 80 μl/well of antagonists (5×) in the above buffer (1×) were prepared (96-well plates). The antagonists were added to the well-plates at different concentrations (30 μM, 10 μM, 1 μM, 300 nM, 100 nM, 10 nM, 1 nM, 100 pM, 10 pM).
OT is added at a concentration of 40 nM.
The fluorescent market being sensitive to the amount of Ca^2+ mobilized within the cell may be quantified by the FLIPR machine.
The activities of the pyrrolidine derivatives according to formula I were assessed using the above described in vitro biological assay. The values refer to the capacity of the example compounds according to formula I to effectively antagonize oxytocin-induced intracellular Ca^2+-mobilization mediated by the Oxytocin receptor.

[3] = tested on: oxytocin-induced uterine contractions in the rat; assay: In vivo model for inhibition of uterine contractions
Procedure: d) In Vivo Model for Inhibition of Uterine Contractions
The assay intends to show the biological effect of tested compounds in an in vivo model of preterm labor, premature birth.
Non-pregnant Charles River CD(SD) BR female rats (9–10 weeks old, 200–250 g) were treated at 18 and 24 hours before the experiment with 250 μg/kg, i.p. diethylstilbestrol (DES). For the assay, the animal was anaesthetised by urethane (1.75 g/kg, i.p.) and placed on an homeothermic operating table. The trachea was isolated and cannulated with a suitable polyethylene (PE) tubing. A midline incision at the hypogastrium level was made and one uterine horn exposed, its cephalic end cannulated with a PE240 tubing and, after filling the internal cavity with 0.2 ml of sterile physiological saline, connected to a “Gemini” amplifying/recording system via a P231D Gould Statham pressure transducer, in, order to measure said pressure. For the i.v. route of administration of the test compounds, one jugular vein was isolated and cannulated with a PE60 tubing connected to a butterfly needle to allow the administration by a dispensing syringe. In the case of intraduodenal administration of the test compounds, the duodenum was isolated and similarly cannulated through a small incision in its wall. One carotid artery was also isolated and cannulated with PE60 catheter and connected to a suitable syringe for blood sample collection (see below). After a stabilization period, the same dose of oxytocin was repeatedly injected intravenously at 30-min intervals. […] Further injections of the same dose of oxytocin were then made for a suitable time after treatment to assess inhibitory effects of the compounds under study. The contractile response of the uterus to oxytocin was quantified by measuring the intrauterine pressure and the number of contractions.
A total of six animals is forming one group which is treated with a given test compound at a given concentration (see above).
The effect of the test compounds were evaluated by comparing pre- and post-treatment pressure values. In addition, at 2, 30, 90 and 210 minutes after test compound administration, a 0.5-ml blood sample was withdrawn from the cannulated carotid artery of each experimental animal. Plasma was obtained by standard laboratory procedure and the resulting samples were stored at −20° C.
The activities of the pyrrolidine derivatives claimed in the formula I were assessed using the above described in vivo biological assay. The values refer to the capacity of the example compound according to formula I to effectively antagonize oxytocin-induced uterine contractions in the rat.

[4] = tested on: oxytocin-induced uterine contractions in the rat; assay: as above; remark: listed apart in the source

SMILES | pIC50 [1] | pIC50 [2] | also measured
CO/N=C1\C[C@@H](c2nc(C)no2)N(C(=O)c2ccc(-c3ccccc3C)cc2)C1 [(3E,5S)-1-[(2′-methyl[1,1′-biphenyl]-4-yl)carbonyl]-5-(3-methyl-1,2,4-oxadiazol-5-yl)-3-pyrrolidinone O-methyloxime] | 7.64 |  | 
CON=C1C[C@@H](c2nnco2)N(C(=O)c2ccc(-c3ccccc3)cc2)C1 [(3EZ,5S)-1-([1,1′-biphenyl]-4-ylcarbonyl)-5-(1,3,4-oxadiazol-2-yl)-3-pyrrolidinone O-methyloxime] | 6.68 | 6.66 | 
CON=C1C[C@@H](c2nc(C)no2)N(C(=O)c2ccc(-c3ccccc3)cc2)C1 [(3EZ,5S)-1-([1,1′-biphenyl]-4-ylcarbonyl)-5-(3-methyl-1,2,4-oxadiazol-5-yl)-3-pyrrolidinone O-methyloxime] | 7.06 | 8.40 | 
CON=C1C[C@@H](c2nc(C)no2)N(C(=O)c2ccc(-c3ccccc3Cl)cc2)C1 [(3EZ,5S)-1-[(2′-chloro[1,1′-biphenyl]-4-yl)carbonyl]-5-(3-methyl-1,2,4-oxadiazol-5-yl)-3-pyrrolidinone O-methyloxime] |  | 9.00 | 
CO/N=C1/C[C@@H](c2noc(CN(C)C)n2)N(C(=O)c2ccc(-c3ccccc3)cc2)C1 [(3Z,5S)-1-([1,1′-biphenyl]-4-ylcarbonyl)-5-{5-[(dimethylamino)methyl]-1,2,4-oxadiazol-3-yl}-3-pyrrolidinone O-methyloxime] |  |  | % Reduction of Uterine Contraction ([3]; oral, NP3S, 10 mg/kg): −49.5 ± 6.1%; % Reduction of Uterine Contraction ([3]; oral, NP3S, 30 mg/kg): −74.4 ± 4.2%; % Reduction of Uterine Contraction ([4]; oral, NP3S, 1 mg/kg): −11.1 ± 1.3%; % Reduction of Uterine Contraction ([4]; oral, NP3S, 3 mg/kg): −42.1 ± 2.9%
CO/N=C1\C[C@@H](c2nc(CCO)no2)N(C(=O)c2ccc(-c3ccccc3)cc2)C1 [Example 9 (3E), (3E,5S)-1-([1,1′-biphenyl]-4-ylcarbonyl)-5-[3-(2-hydroxyethyl)-1,2,4-oxadiazol-5-yl]-3-pyrrolidinone O-methyloxime] |  |  | melting point: 140.5 °C

Second part, led by results:

pIC50 [1] | pIC50 [2] | SMILES | also measured
8.22 |  | CCC(O)c1noc([C@@H]2CC(=NOC)CN2C(=O)c2ccc(-c3ccccc3)cc2)n1 (mixture of isomers) [(3EZ,5S)-1-([1,1′-biphenyl]-4-ylcarbonyl)-5-{3-[(1RS)-1-hydroxypropyl]-1,2,4-oxadiazol-5-yl}-3-pyrrolidinone O-methyloxime] | 
7.96 |  | CON=C1C[C@@H](c2nc(CCO)no2)N(C(=O)c2ccc(-c3ccccc3)cc2)C1 [(3EZ,5S)-1-([1,1′-biphenyl]-4-ylcarbonyl)-5-[3-(2-hydroxyethyl)-1,2,4-oxadiazol-5-yl]-3-pyrrolidinone O-methyloxime] | 
8.15 |  | CON=C1C[C@@H](c2nc(CC(=O)N3CCCC3)no2)N(C(=O)c2ccc(-c3ccccc3)cc2)C1 [(3EZ,5S)-1-([1,1′-biphenyl]-4-ylcarbonyl)-5-{3-[2-oxo-2-(1-pyrrolidinyl)ethyl]-1,2,4-oxadiazol-5-yl}-3-pyrrolidinone O-methyloxime] | 
7.68 | 7.92 | CON=C1C[C@@H](c2nc(C)no2)N(C(=O)c2ccc(-c3ccccc3C)cc2)C1 [(3EZ,5S)-1-[(2′-methyl[1,1′-biphenyl]-4-yl)carbonyl]-5-(3-methyl-1,2,4-oxadiazol-5-yl)-3-pyrrolidinone O-methyloxime] | 
8.70 |  | CON=C1C[C@@H](c2noc(C3CCN(C(C)=O)CC3)n2)N(C(=O)c2ccc(-c3ccccc3)cc2)C1 [(3EZ,5S)-5-[5-(1-acetyl-4-piperidinyl)-1,2,4-oxadiazol-3-yl]-1-([1,1′-biphenyl]-4-ylcarbonyl)-3-pyrrolidinone O-methyloxime] | 
8.05 | 8.40 | CO/N=C1/C[C@@H](c2nc(C)no2)N(C(=O)c2ccc(-c3ccccc3C)cc2)C1 [(3Z,5S)-1-[(2′-methyl[1,1′-biphenyl]-4-yl)carbonyl]-5-(3-methyl-1,2,4-oxadiazol-5-yl)-3-pyrrolidinone O-methyloxime] | % Reduction of Uterine Contraction ([3]; Intravenous, NP3S 5 ml/kg infusion, 0.3 mg/kg): −21.5 ± 7.3%; % Reduction of Uterine Contraction ([3]; Intravenous, NP3S 5 ml/kg infusion, 1 mg/kg): −44.6 ± 7.1%; % Reduction of Uterine Contraction ([3]; Intravenous, NP3S 5 ml/kg infusion, 10 mg/kg): −67.2 ± 10.1%; % Reduction of Uterine Contraction ([4]; Intravenous, NP3S 5 ml/kg infusion, 3 mg/kg): −58.0 ±5.9%; % Reduction of Uterine Contraction ([4]; Intravenous, NP3S, 7.5 ml/kg infusion, 30 mg/kg): −80.3 ± 5.1%
8.52 |  | CON=C1C[C@@H](c2noc(CNC(C)=O)n2)N(C(=O)c2ccc(-c3ccccc3)cc2)C1 [N-({3-[(2S,4EZ)-1-([1,1′-biphenyl]-4-ylcarbonyl)-4-(methoxyimino)pyrrolidinyl]-1,2,4-oxadiazol-5-yl}methyl)acetamide] | 

From patent US7115639B2, “Pyrrolidine oxadiazole- and thiadiazole oxime derivatives being oxytocin receptor antagonists” (Applied Research Systems ARS Holding N.V., priority 2001, dated 2006)
